Test results reported in patent US20250144109A1, “Compositions for preventing or treating pulmonary arterial hypertension” (CHONG KUN DANG PHARMACEUTICAL CORP., priority 2022, published 2025).

Experiments:
[1] = system: SD rats with monocrotaline (MCT)-induced pulmonary arterial hypertension; assay: MCT-induced pulmonary arterial hypertension animal model (survival, lung and ventricle weights, ECG); type: in vivo, rat; details: 20 mg/kg oral twice a day
Protocol: SD rats having the following conditions were prepared.
Rats, experimental animals, were divided into groups as follows in consideration of a body weight on the day before drug administration began.
During a test period, the normal group was dosed with saline, and the control group (MCT+Vehicle) was subcutaneously dosed with a monocrotaline (MCT) aqueous solution once at 3 ml/Kg, and then dosed with a vehicle consisting of a mixed solution of cremophor EL, ethanol, and saline at a volume ratio of 1:1:8. A MCT aqueous solution was prepared to reach a concentration of 20 mg/mL in a solvent adjusted to pH 7.4 using a 1 N NAOH solution in 1 N HCL. After that, subcutaneous administration was performed by adjusting to […].
The drug administration group was first subcutaneously dosed with the MCT aqueous solution at 3 ml/Kg once, and then orally dosed with compound 43 (the compound of Synthesis Example 1) at 20 mg/Kg twice a day during the test period (four weeks). The compound 43 was dissolved in a mixed solution of cremophor EL, ethanol, and saline at a volume ratio of 1:1:8, and then orally administered.
All data were expressed as mean±standard error, and each group and the control group were compared using an unpaired T test (p<0.05) to determine the effect of each experimental group.
After group separation and then administration of the MCT aqueous solution, the survival rate was evaluated by confirming a dead individual during the test period.
The individual survival rate was calculated by reflecting the number of animals surviving in the corresponding week from the first 10 animals participating in the experiment for each group. Each number on the left side of the line graph means an individual survival rate % (number of surviving individuals/total number of animals participating in experiment).
After four weeks of the test period, the lung and the heart were removed to measure the weight of the lung and the weight of left ventricle and right ventricle in each group, and the results are shown in FIGS. 5 and 6.
After four weeks of the test period, the animal was subjected to inhalation anesthesia with isoflurane, and electrodes were attached to the limbs to measure the animal's electrocardiogram for more than 30 seconds. The result was measured using a Bio Amp ECG meter and analysis was performed using LabChart 8 software.

[2] = system: HPASMC (human pulmonary artery smooth muscle) cells; assay: Cell proliferation inhibition (CCK-8) in TGF-β stimulated HPASMC cells; type: cell-based; details: 1 μM drug with TGF-β 10 ng/ml, 24 hours, vs TGF-β only, FIG. 3
Protocol: TGF-β stimulation to HPASMC (human pulmonary artery smooth muscle) cells, which are a model of pulmonary arterial hypertension disease, and a cell proliferation inhibition rate according to treatment with six compounds of Synthesis Examples 1 to 6 were confirmed through cell viability measurement.
HPASMC (5.0×10^3 cells/well) cells were seeded in 96-well plate, and cultured for 24 hours in a serum free medium as starvation. 1 μM concentration of drugs (compounds 43, 295, 296, 40, 239, 285) were simultaneously treated with TGF-β (10 ng/ml) and cultured for 24 hours, after which cell viability was measured through CCK-8 assay, and the results thereof are shown in FIG. 3. In above FIG. 3, a control group indicates cells not treated with TGF-β and the compounds of Synthesis Examples, and “-” indicates cells treated only with TGF-β.

[3] = system: tubulin acetylation in HPAEC (Human pulmonary artery endothelial cells); assay: Tubulin acetylation in HPAEC by Western blot (anti-acetyl tubulin); type: cell-based; details: 4 hours at 37° C., concentration 0.1μ, FIG. 1
Protocol: HPAEC (3.0×10^5 cells/well, Human pulmonary artery endothelial cells) pulmonary artery endothelial cells were seeded in a six-well plate, and then treated with drugs (compounds 43, 295, 296, 40, 239, and 285) at each concentration. In four hours later at 37° C., proteins were extracted with lysis buffer and quantified by Bradford method. 5 μg of proteins were dissolved in sample buffer, subjected to electrophoresis on 4-12% gradient gel, transferred to a nitrocellulose membrane for seven minutes, and blocked in a 3% BSA solution for one hour. Anti-acetyl tubulin (1:1,000) and GAPDH (1:2,000) were added to the 3% BSA solution, after which the membrane was immersed therein and reacted at 4° C. for 10 hours, and then washed three times with 1×TBST for 10 minutes, respectively. IgG-HRP antibody (1:5,000) was added to 5% BSA, after which the membrane was immersed therein and reacted at room temperature for one hour, and then washed three times with 1×TBST for 10 minutes, respectively. In above FIG. 1, a control group indicates cells not treated with the compounds of Synthesis Examples.

[4] = system: HPAEC cells; assay: Cell viability (CCK-8) of TGF-β stimulated HPAEC cells; type: cell-based, Human; details: 1 μM drug with TGF-β 10 ng/ml, 48 hours, vs TGF-β only, FIG. 2
Protocol: TGF-β stimulation to HPAEC cells, which are a model of pulmonary arterial hypertension disease, and the survival rate according to the compounds of Synthesis Examples 1 to 6 were confirmed through cell viability measurement.
HPAEC (2.0×10^3 cells/well) cells were seeded in 96-well plate, and cultured for 24 hours in a serum free medium as starvation. 1 μM concentration of drugs (compounds 43, 295, 296, 40, 239, 285) were simultaneously treated with TGF-β (10 ng/ml) and cultured for 48 hours, after which cell viability was measured through CCK-8 assay, and the results thereof are shown in FIG. 2. In above FIG. 2, a control group indicates cells not treated with TGF-β and the compounds of Synthesis Examples, and “-” indicates cells treated only with TGF-β.

[5] = MCT rats, after four weeks, vs control group

| Structure (SMILES) | individual survival rate ([1]; MCT 50 mg/kg s.c. once, four weeks, vehicle control 50%, FIG. 4) | JT interval (ECG) [1, 5] | QT interval (ECG) [1, 5] | QTc (ECG) [1, 5] | ratio of right ventricle weight to left ventricle weight ([1]; MCT rats, after four weeks, vs control group, FIG. 6) | proliferation rate after TGF-β stimulation [2] | tubulin acetylation (acetyl tubulin expression level) [3] | survival rate (cell viability) after TGF-β stimulation [4] |
| --- | --- | --- | --- | --- | --- | --- | --- | --- |
| O=C(N1CCS(=O)(=O)CC1)N(Cc1ccc(-c2nnc(C(F)F)o2)cn1)c1ccccc1 [Compound 43, N-((5-(5-(difluoromethyl)-1,3,4-oxadiazol-2-yl)pyridin-2-yl)methyl)-N-phenylthiomorpholine-4-carboxamide 1,1-dioxide] | 90% | significantly reduced | significantly reduced | significantly reduced | significantly reduced | inhibited | tubulin acetylation was expressed | improved |
| O=C(N1CCS(=O)(=O)CC1)N(Cc1ccc(-c2nnc(C(F)F)o2)cn1)c1cccc(F)c1 [Compound 296, N-((5-(5-(difluoromethyl)-1,3,4-oxadiazol-2-yl)pyridin-2-yl)methyl)-N-(3-fluorophenyl)thiomorpholine-4-carboxamide 1,1-dioxide] | – | – | – | – | – | inhibited | tubulin acetylation was expressed | improved |
| O=C(N1CCS(=O)(=O)CC1)N(Cc1ccc(-c2nnc(C(F)F)o2)cc1F)c1ccccc1 [Compound 40, N-(4-(5-(difluoromethyl)-1,3,4-oxadiazol-2-yl)-2-fluorobenzyl)-N-phenylthiomorpholine-4-carboxamide 1,1-dioxide] | – | – | – | – | – | inhibited | tubulin acetylation was expressed | improved |
| O=C(N1CCS(=O)(=O)CC1)N(Cc1ccc(-c2nnc(C(F)F)o2)cn1)c1ccc(F)cc1 [Compound 295, N-((5-(5-(difluoromethyl)-1,3,4-oxadiazol-2-yl)pyridin-2-yl)methyl)-N-(4-fluorophenyl)thiomorpholine-4-carboxamide 1,1-dioxide] | – | – | – | – | – | inhibited | tubulin acetylation was expressed | improved |
| O=C(N1CCS(=O)(=O)CC1)N(Cc1ccc(-c2nnc(C(F)F)o2)cn1)c1cccc(Cl)c1 [Compound 239, N-(3-chlorophenyl)-N-((5-(5-(difluoromethyl)-1,3,4-oxadiazol-2-yl)pyridin-2-yl)methyl)thiomorpholine-4-carboxamide 1,1-dioxide] | – | – | – | – | – | inhibited | tubulin acetylation was expressed | improved |
| O=C(N1CCS(=O)(=O)CC1)N(Cc1ccc(-c2nnc(C(F)F)o2)cc1F)c1ccc(F)cc1 [Compound 285, N-(4-(5-(difluoromethyl)-1,3,4-oxadiazol-2-yl)-2-fluorobenzyl)-N-(4-fluorophenyl)thiomorpholine-4-carboxamide 1,1-dioxide] | – | – | – | – | – | inhibited | tubulin acetylation was expressed | improved |
